Data reported in patent US11926613B2, “Kinase inhibitors for the treatment of central and peripheral nervous system disorders” (UNIVERSITY OF MIAMI, priority 2017, dated 2024).
pEC50: −log10 of the molar value.

Columns and labels:
[1] = test system: neurons from hippocampi of E18 rat embryos; assay: Neurite growth length (% NTL) in cultured E18 rat hippocampal neurons, 9-point dose response, 48 hours; format: cell-based; details: Rattus norvegicus, Neuron, 48 h; for activity at 0.078 µM: 78 nM; for activity at 0.156 µM: 156 nM; for activity at 0.312 µM: 312 nM; for activity at 0.625 µM: 625 nM
Outline: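 % NTL comes from automated neurite tracing of βIII-tubulin-stained cells, with 200–300 or more neurons per condition. Compounds were given in a 9-point dilution series (20 μM to 0.078125 μM) for 48 h. Cells were trypsin-dissociated E18 rat hippocampal neurons plated at 1500/well on poly-D-lysine.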

Primary Neurons = assay: HCS neurite outgrowth assay (High Content Screening with Primary Neurons); format: cell-based; details: Primary neuron

| SMILES | activity at 0.078 µM [1] | activity at 0.156 µM [1] | activity at 0.312 µM [1] | activity at 0.625 µM [1] | activity at 1.25 µM [1] | activity at 2.5 µM [1] | activity at 5 µM [1] | activity at 10 µM [1] | activity at 20 µM [1] | pEC50 (Primary Neurons) |
| --- | --- | --- | --- | --- | --- | --- | --- | --- | --- | --- |
| COc1ccc(O)c(C(=O)c2ccc(C(=O)N[C@@H]3CNC[C@H]3NC(=O)c3ccc4c(cnn4C)c3)cc2)c1F [Example A53, N-[(3R,4R)-4-[4-(2-fluoro-6-hydroxy-3-methoxybenzoyl)benzamido]pyrrolidin-3-yl]-1-methyl-1H-indazole-5-carboxamide] | 90% | 82.5% | 79.3% | 76.3% | 85.8% | 88.5% | 90.1% | 91.9% | 70% | 6.09 |
| COc1ccc(O)c(C(=O)c2ccc(C(=O)N[C@@H]3CNC[C@H]3NC(=O)c3ccnc(N)c3)cc2)c1F [Example A54, 2-amino-N-[(3R,4R)-4-[4-(2-fluoro-6-hydroxy-3-methoxybenzoyl)benzamido]pyrrolidin-3-yl]pyridine-4-carboxamide] | 83.1% | 79.9% | 84.3% | 84.1% | 94.7% | 105% | 120% | 151% | 228% | < 4.70 |
| COc1ccc(O)c(C(=O)c2ccc(C(=O)N[C@@H]3CNC[C@H]3NC(=O)c3ccnc4[nH]ccc34)cc2)c1F [Example A56, N-[(3R,4R)-4-[4-(2-fluoro-6-hydroxy-3-methoxybenzoyl)benzamido]pyrrolidin-3-yl]-1H-pyrrolo[2,3-b]pyridine-4-carboxamide] | 128% | 137% | 131% | 133% | 165% | 196% | 267% | 375% | 488% | 5.07 |
| COc1ccc(O)c(C(=O)c2ccc(C(=O)N[C@@H]3CNC[C@H]3NC(=O)c3ccc4cn[nH]c4c3)cc2)c1F [Example A57, N-[(3R,4R)-4-[4-(2-fluoro-6-hydroxy-3-methoxybenzoyl)benzamido]pyrrolidin-3-yl]-1H-indazole-6-carboxamide] | 92.2% | 97.8% | 95.1% | 93.9% | 97.3% | 93.5% | 105% | 107% | 111% | < 4.70 |
| COc1ccc(O)c(C(=O)c2ccc(C(=O)N[C@@H]3CNC[C@H]3NC(=O)c3ccc4[nH]nnc4c3)cc2)c1F [Example A58, N-[(3R,4R)-4-[4-(2-fluoro-6-hydroxy-3-methoxybenzoyl)benzamido]pyrrolidin-3-yl]-1H-1,2,3-benzotriazole-5-carboxamide] | 88.3% | 87.6% | 79.3% | 75.7% | 76.3% | 84.8% | 85.3% | 89.5% | 88.6% | 5.28 |
| COc1ccc(O)c(C(O)c2ccc(C(=O)N[C@@H]3CNC[C@H]3NC(=O)c3ccncc3)cc2)c1F (stereo partly drawn) [Example A59, N-[(3R,4R)-4-{4-[(2-fluoro-6-hydroxy-3-methoxyphenyl)(hydroxy)methyl]benzamido}pyrrolidin-3-yl]pyridine-4-carboxamide] | 91.9% | 82.8% | 73.6% | 82.3% | 76.7% | 91.2% | 95.4% | 111% | 106% | 5.15 |
| Cc1cc(C(=O)N[C@@H]2CNC[C@H]2NC(=O)c2ccncc2)ccc1C(=O)c1ccccc1O [Example A64, N-[(3R,4R)-4-[4-(2-hydroxybenzoyl)-3-methylbenzamido]pyrrolidin-3-yl]pyridine-4-carboxamide] | 91.3% | 99.8% | 107% | 105% | 116% | 129% | 124% | 121% | 126% | 6.23 |
| O=C(N[C@@H]1CNC[C@H]1NC(=O)c1ccc(C(=O)c2ccccc2O)cc1Cl)c1ccncc1 [Example A65, N-[(3R,4R)-4-[2-chloro-4-(2-hydroxybenzoyl)benzamido]pyrrolidin-3-yl]pyridine-4-carboxamide] | 108% | 117% | 123% | 113% | 126% | 129% | 128% | 150% | 161% | 5.15 |
| Nc1nccc(C(=O)N[C@@H]2CNC[C@H]2NC(=O)c2ccc(C(=O)c3ccccc3O)c(Cl)c2)n1 [Example A66, 2-amino-N-[(3R,4R)-4-[3-chloro-4-(2-hydroxybenzoyl)benzamido]pyrrolidin-3-yl]pyrimidine-4-carboxamide] | 113% | 107% | 122% | 111% | 122% | 129% | 129% | 145% | 161% | 5.63 |
| O=C(N[C@@H]1CNC[C@H]1NC(=O)c1ccc(C(=O)c2ccccc2O)c(Cl)c1)c1ccncc1 [Example A67, N-[(3R,4R)-4-[3-chloro-4-(2-hydroxybenzoyl)benzamido]pyrrolidin-3-yl]pyridine-4-carboxamide] | 94.2% | 97.9% | 104% | 104% | 112% | 106% | 108% | 120% | 128% | < 4.70 |
| COc1cc(C(=O)c2ccccc2O)ccc1C(=O)N[C@@H]1CNC[C@H]1NC(=O)c1ccnc(N)n1 [Example A68, 2-amino-N-[(3R,4R)-4-[4-(2-hydroxybenzoyl)-2-methoxybenzamido]pyrrolidin-3-yl]pyrimidine-4-carboxamide] | 101% | 95.7% | 94.8% | 91.2% | 102% | 101% | 96.8% | 102% | 94.3% | 5.91 |
| COc1cc(C(=O)c2ccccc2O)ccc1C(=O)N[C@@H]1CNC[C@H]1NC(=O)c1ccncc1 [Example A69, N-[(3R,4R)-4-[4-(2-hydroxybenzoyl)-2-methoxybenzamido]pyrrolidin-3-yl]pyridine-4-carboxamide] | 94.3% | 96.2% | 96% | 107% | 110% | 112% | 112% | 119% | 117% | 6.40 |
| Nc1nccc(C(=O)N[C@@H]2CNC[C@H]2NC(=O)c2ccc(C(=O)c3cccc(Cl)c3O)cc2)n1 [Example A70, 2-amino-N-[(3R,4R)-4-[4-(3-chloro-2-hydroxybenzoyl)benzamido]pyrrolidin-3-yl]pyrimidine-4-carboxamide] | 103% | 107% | 115% | 122% | 123% | 117% | 122% | 135% | 145% | < 4.70 |
| O=C(N[C@@H]1CNC[C@H]1NC(=O)c1ccc(C(=O)c2cccc(Cl)c2O)cc1)c1ccncc1 [Example A71, N-[(3R,4R)-4-[4-(3-chloro-2-hydroxybenzoyl)benzamido]pyrrolidin-3-yl]pyridine-4-carboxamide] | 94.8% | 99% | 105% | 109% | 102% | 109% | 119% | 117% | 124% | 5.67 |
| COc1cccc(C(=O)c2ccc(C(=O)N[C@@H]3CNC[C@H]3NC(=O)c3ccnc(N)n3)cc2)c1O [Example A72, 2-amino-N-[(3R,4R)-4-[4-(2-hydroxy-3-methoxybenzoyl)benzamido]pyrrolidin-3-yl]pyrimidine-4-carboxamide] | 96.4% | 94% | 97.7% | 108% | 106% | 105% | 113% | 127% | 157% | < 4.70 |
| COc1cccc(C(=O)c2ccc(C(=O)N[C@@H]3CNC[C@H]3NC(=O)c3ccncc3)cc2)c1O [Example A73, N-[(3R,4R)-4-[4-(2-hydroxy-3-methoxybenzoyl)benzamido]pyrrolidin-3-yl]pyridine-4-carboxamide] | 96.7% | 110% | 102% | 105% | 125% | 117% | 121% | 136% | 159% | < 4.70 |
